The structures appear in SMILES notation. “Also recorded” adds a separate entry of the source.

The target in assay [1] is Kv1.5 (Homo sapiens, UniProt P22460). As to the kind of experiment: Two-electrode voltage clamp in Xenopus laevis oocytes, Kv1.5. The class given is cell-based. To be noted: BBP 10 μM, TEVC, n = 5. On the procedure:
(§1) cRNA was prepared from linearized plasmids using the mMESSAGE mMACHINE T7 kit (Ambion, USA) and quantified by UV spectroscopy (NanoDrop, Thermo Scientific, Wilmington, USA). Xenopus laevis oocytes were acquired from EcoCyte Bioscience (Castrop-Rauxel, Germany). Oocytes were injected with 50 nL cRNA and currents were recorded after 2 days of incubation at 19°C. Currents were recorded at a sampling rate of 10 kHz using a TEVC amplifier (Dagan CA-1B; IL, USA), and borosilicate glass recording electrodes (Module Ohm, Herlev, Denmark), made with a DMZ Universal Puller (Zeitz Instruments, Martinsried, Germany) with a resistance of 0.5–1 MΩ when filled with 2 M KCl. Oocytes were superfused with Kulori (pH 7.4) solution containing NaCl 90 mM, KCl 4 mM, MgCl2 1 mM, CaCl2 1 mM, 4-(2-hydroxyethyl)-1-piperazineethanesulfonic acid 5 mM, and currents were elicited with the voltage protocols previously indicated (Skarsfeldt et al., [2016]), from a holding potential of −80 mV. […]
(§2) To assess the effect of BBP on other calcium-activated potassium channels (hBK, hSK3 WT, rSK3 H491N, and hIK), each individual current was first normalized to its cell size using membrane's capacitance (pA/pF) before statistical analysis. […] Statistical significance between saline and the effect of both BBP and the corresponding reference compound was determined for each channel using one-way ANOVA analysis. […]
(Two-electrode voltage clamp holds a large cell at a set potential and records current.)

Assay [2] has as its target Kv7.1/KCNE1 (Homo sapiens, UniProt P51787). The assay can be described thus: Two-electrode voltage clamp in Xenopus laevis oocytes, Kv7.1/KCNE1. As to conditions: BBP 10 μM, TEVC, n = 5. The class given is cell-based. On the procedure: as §1, §2
Assay [3] deals with all SK channel subtypes. As to the kind of experiment: Manual patch clamp, summary over all SK channel subtypes. The class given is cell-based, human. As to conditions: BBP 1 μM. On the procedure: HEK293 cells were transiently co-transfected with the plasmid of interest (hBK, hSK1, hSK2, hSK3 WT, rSK3 H491N, or hIK) and eGFP using standard Lipofectamine™ 2000 (Thermo Fisher Scientific, Waltham, Massachussets, USA) transfection protocols. After transfection, cells were incubated overnight before the experiments.
Manual patch clamp experiments were performed at room temperature in the whole cell configuration with a HEKA EPC9 amplifier and the Patchmaster software (HEKA Elektronik, Ludwigshafen, Germany). All currents were elicited every 2 s using an incremental 200 ms voltage-ramp protocol starting at −80 mV and finishing at +80 mV from a holding potential of 0 mV. […] Currents were measured using the same solutions as the ones used for automated patch clamp, with symmetrical potassium concentrations and a free intracellular calcium concentration of 400 nM. […]
as §2
For orientation: In patch-clamp work, channel activity is measured electrically.

Chain of Kv1.5 (P22460 whole entry): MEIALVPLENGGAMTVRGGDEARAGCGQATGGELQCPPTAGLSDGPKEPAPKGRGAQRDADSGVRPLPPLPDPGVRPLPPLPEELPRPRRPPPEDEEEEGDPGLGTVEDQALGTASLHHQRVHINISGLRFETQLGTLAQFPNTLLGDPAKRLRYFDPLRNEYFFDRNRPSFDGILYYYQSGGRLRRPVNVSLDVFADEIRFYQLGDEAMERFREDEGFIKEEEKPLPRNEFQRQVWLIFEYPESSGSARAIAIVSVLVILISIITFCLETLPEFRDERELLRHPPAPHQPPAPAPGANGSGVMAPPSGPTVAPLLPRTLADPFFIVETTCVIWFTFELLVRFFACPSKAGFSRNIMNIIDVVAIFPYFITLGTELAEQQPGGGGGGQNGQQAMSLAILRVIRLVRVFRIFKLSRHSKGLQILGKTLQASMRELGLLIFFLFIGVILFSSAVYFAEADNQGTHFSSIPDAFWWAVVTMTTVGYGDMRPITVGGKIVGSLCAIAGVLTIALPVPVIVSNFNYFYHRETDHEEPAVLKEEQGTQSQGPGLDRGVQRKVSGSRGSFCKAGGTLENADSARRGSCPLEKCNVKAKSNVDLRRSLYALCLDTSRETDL

As to `c1cc(-c2nc3ccccc3[nH]2)nc(-c2nc3ccccc3[nH]2)c1` [BBP, 2,6-Bis(2-benzimidazolyl)pyridine], in assay [1], the “Effect on Kv1.5 current” value is “did not have any effect; also recorded: did not significantly affect”. The “Effect on Kv7.1/KCNE1 current” value in assay [2] is on record as “did not have any effect; also recorded: did not significantly affect”. For the same compound, in assay [3], the “Effect on all SK currents (in words)” value is recorded as “totally inhibited” and the “Voltage dependence of inhibition (−80 vs +80 mV)” value is listed as “no significant differences”.

The values above are taken from publication PMC6287599, “2,6-Bis(2-Benzimidazolyl)Pyridine (BBP) Is a Potent and Selective Inhibitor of Small Conductance Calcium-Activated Potassium (SK) Channels” (Frontiers in Pharmacology, 2018).
